Results on one compound are retold here after US20260232752A1, “COMBINATION THERAPY METHODS, COMPOSITIONS AND KITS” (Accure Therapeutics, S.L., priority 2019, published 2026).

Assay [1] has as its system experimental autoimmune encephalomyelitis (EAE) mouse model. Kind of assay: Study EAE-C03: clinical score in EAE mouse model, treatment in chronic phase. The assay is classed as in vivo. The conditions noted are these: after 17 days of treatment, treatment started in chronic phase. The protocol:
Three in vivo studies supporting the medical plausibility of BN201 in the treatment of MS and optic neuritis were performed. These studies sought to test the neuroprotective effect of BN201 and were conducted in the neurodegenerative and demyelinating experimental autoimmune encephalomyelitis (EAE) mouse model. Immune response to Myelin Basic Protein (MBP) or Myelin Proteolipid Protein (PLP) induces lesions located predominantly in the spinal cord whereas immunization with Myelin Oligodendrocyte Glycoprotein (MOG) generates lesions located predominantly in the optic nerve and spinal cord. In the literature, the EAE model is commonly used as a model of MS and optic neuritis, since it can cause irreversible visual loss (Kezuka et al, Analysis of the pathogenesis of experimental autoimmune optic neuritis. J Biomed Biotechnol. 2011; 2011:294046; Guo et al, Decreased neural stem/progenitor cell proliferation in mice with chronic/nonremitting experimental autoimmune encephalomyelitis. Neurosignals. 2010; 18(1):1-8).
Study EAE-C03: daily i.p. administration of BN201 at two different concentrations was tested versus placebo according to the following experimental design: • EAE affected placebo-treated animals (pathological control group); • EAE-affected animals treated with BN201 at 50 mg/kg dose and • EAE-affected animals treated with BN201 at 100 mg/kg dose. […]

For assay [2], the system named is human neuroblastoma cell line SH-SY5Y. Description: Neuroprotection against H2O2 oxidative stress, MTT assay. The assay is classed as cell-based. The note with it: 1 hour preincubation at 0.03-40 μM, then H2O2 15 μM 30 minutes. As for the experimental part:
The objective of the study was to test the possible synergistic effect of the BN201-monomethylfumarate salt in a neuroprotective assay. Thus, BN201-monomethylfumarate salt obtained as indicated in example 5, was tested for its ability to protect the human neuroblastoma cell line SH-SY5Y against death induced by oxidative stress (i.e., hydrogen peroxide (H202)) using an MTT (3-(4,5-dimethylthiazol-2-yl)-2,5-diphenyltetrazolium bromide) cell proliferation assay.
SH-SY5Y cells were cultivated in 50% Eagle's minimum essential medium (EMEM), 50% Ham's F12 Nutrient Mixture, 10% fetal bovine serum (FBS), 2 mM L-Glu, and 1% penicillin/streptomycin. All of the cell cultures were maintained in a humidified incubator at 5% CO2 and at 37° C. SH-SY5Y cells were preincubated for 1 hour with BN201 alone, monomethyl fumarate alone, or BN201-monomethylfumarate salt at various concentrations (n=5; concentrations: 0.03 μM, 0.1 μM, 0.3 μM, 0.5 μM, 1 μM, 3 μM, 5 μM, 10 μM, 20 μM, 40 μM) and then H2O2 (15 μM) was added to induce stress. Preincubation with sodium pyruvate (10 mM) was used as a positive control. After 30 minutes of H2O2 incubation, the medium was changed and thiazolyl blue tetrazolium bromide (MTT; Sigma Aldrich; stock concentration 10 mg/ml) was added to each well at the final concentration of 0.5 mg/ml. After 2 hours of MTT incubation the cell medium was removed, and cells were resuspended in pure dimethyl sulfoxide (DMSO). Cell viability was determined by reading the absorbance at 570 nm. Each experiment was performed in quintuplicate.
A general note: Tetrazolium assays rely on reduction of a dye to a coloured formazan, in cell work by metabolically active cells.

Assay [3] has as its system EAE in C57BL6 mice immunized with MOG35-55. Description: Example 3: BN201 and DMF combination, progression of chronic EAE. The conditions noted are these: BN201 25 mg/kg i.p. alone (suboptimal), once a day six days per week from day 15. The assay is classed as in vivo, mouse. The protocol: Effect in the animal model of MS (i.e., EAE in C57BL6 mice immunized with MOG35-55), similar to Example 2.
Starting on day 15, mice were administered: • dimethyl fumarate (DMF) (group A, 10 mice), • BN201 (group B, 10 mice) • a combination thereof (group C, 10 mice) once a day for six days per week at suboptimal dosages (10 mg/kg for DMF, 25 mg/kg for BN201).
DMF was administered orally with a rigid cannula in a saline vehicle at a volume of 10 mL/kg, while BN201 was administered via i.p. injection in a saline vehicle at a volume of 5 mL/kg. Control mice received vehicle only via both oral and i.p. injection (group D, 10 mice) or nothing at all (group E, 2 mice).
The objective of the study was to evaluate the efficacy and safety of combination therapy with suboptimal doses of BN201 (25 mg/kg) and dimethyl-fumarate (DMF) (10 mg/kg) in the progression of chronic EAE in mice.
During a one week acclimation period starting on day −7, mice were distributed based on body weight stratification into different experimental groups. On day 0, mice were immunized subcutaneously in both hind pads with 150 μg of MOG peptide 35-55 (Spikem, Firenze) emulsified with 50 μg of Mycobacterium tuberculosis (H37Ra strain; Difco, Detroit, MI) in incomplete Freund's adjuvant (IFA). […]

For the compound `CC(C)CN(CC(=O)N(CCCN1CCCC1=O)CC(N)=O)C(=O)CNCCc1ccccc1F` [BN201, [N-(2-(2′-Fluorophenyl)ethyl)glycyl]-[N-(2-methylpropyl)glycyl]-N-[3-(2′-oxopyrrolidinyl)-propyl]glycinamide], the “clinical score compared to placebo” value in assay [1] (50 mg/kg daily i.p.) and in assay [1] (100 mg/kg daily i.p.) was “significantly decreased the clinical score” throughout. The “cell viability as a percentage compared to the control (protection from death induced by oxidative stress)” value in assay [2] is “partially rescued neurons from death induced by oxidative stress”. Also, in assay [3], the “course of EAE (clinical score) versus placebo” value is reported as “suffered EAE similar to those mice treated with placebo”.
